Results reported in patent US5244916A, “Inhibition of respiratory burst using posttranslational modification inhibitors” (The Scripps Research Institute, priority 1992, dated 1993).
Where two headings read alike, the source gives them in different places.

How the values were obtained:
[1] = test system: NADPH oxidase in HL-60 cells; assay: Inhibition of NADPH oxidase activation / O2- generation in HL-60 cells (stimulus not singled out); type: cell-based
Method: HL-60 cells were maintained in stationary culture in RPMI 1640 medium (Gibco, Grand Island, NY) containing 10% fetal bovine serum at 37° C in an atmosphere of 95 air and 5% CO2. The cells (about 8×10^5 /ml) were differentiated into neutrophil-like cells by treatment with 1.3% DMSO for six days (Harris, et al., J. Leukocyte Biol. 37: 407-422 (1985)). The cells were treated with the indicated levels of compactin or lovastatin by addition of a 1,000-fold concentrated stock solution to the appropriate concentration on day 4 of differentiation. […] In studies of the protective effect of mevalonic acid, the compound was added as the mevalonolactone (Sigma Chemical Co., St. Louis, MO) at a concentration of 1 mM to the cell culture on days 4 to 6. Similarly, cholesterol was added in the form of LDL prepared according to the method of Curtiss and Edgington (Curtiss, et al., J. Biol. Chem. 257: 15213-15221 (1991)) at a final concentration of 50 μg/ml; ubiquinone (Sigma Chemical Co., St. Louis, MO) was added as Coenzyme Q-10 at a final concentration of 0.5 mM; and dolichol (Sigma Chemical Co., St. Louis, MO) was added as a dispersion in phosphatidylcholine at a final concentration of 0.5 mM (Cutts, et al., J. Cell Physiol. 139: 550-555 (1989)). O2 --formation by HL-60 cells was assessed by the SOD-sensitive reduction of cytochrome c. Cells were suspended at 1×10^7 /ml in Krebs-Ringer Hepes buffer with 5.5 mM glucose (KRHG) and 50-100μl of cells were added to a cuvette containing 100 μM cytochrome c (type III, Sigma Chemical Co., St. Louis, MO), ±300 μg/ml SOD (Sigma Chemical Co., St. Louis, MO) in 700-750 μl KRHG. Cytochalasin b (Sigma Chemical Co., St. Louis, MO) was added to a final concentration of 5 μg/ml, and the cells were incubated at 37° C. for five minutes while a stable baseline at a wavelength of 550 nm was obtained. O2 --formation was initiated by the addition of 1 μM N-formylmethionylleucylphenylalanine (FMLP; Sigma Chemical Co., St. Louis, MO) or 1μg/ml phorbol myristate acetate (PMA; Sigma Chemical Co., St. Louis, MO). Cytochrome c reduction at 550nm was continuously monitored and maximal rate and extent of the reaction calculated.

[2] = test system: HL-60 cells (NADPH oxidase / respiratory burst); assay: O2- formation by DMSO-differentiated HL-60 cells, FMLP-stimulated (SOD-sensitive cytochrome c reduction); type: cell-based; conditions: for activity at 0.4 µM / activity at 2 µM / activity at 4 µM / activity at 10 µM: Homo sapiens, HL-60; for activity at 0.4 µM: 0.4 μM compactin; for activity at 2 µM: 2 μM compactin; for activity at 4 µM: 4 μM compactin; for activity at 10 µM: 10 μM compactin
Method: HL-60 cells were maintained in stationary culture in RPMI 1640 medium (Gibco, Grand Island, NY) containing 10% fetal bovine serum at 37° C in an atmosphere of 95 air and 5% CO2. The cells (about 8×10^5 /ml) were differentiated into neutrophil-like cells by treatment with 1.3% DMSO for six days (Harris, et al., J. Leukocyte Biol. 37: 407-422 (1985)). The cells were treated with the indicated levels of compactin or lovastatin by addition of a 1,000-fold concentrated stock solution to the appropriate concentration on day 4 of differentiation. […] In studies of the protective effect of mevalonic acid, the compound was added as the mevalonolactone (Sigma Chemical Co., St. Louis, MO) at a concentration of 1 mM to the cell culture on days 4 to 6. Similarly, cholesterol was added in the form of LDL prepared according to the method of Curtiss and Edgington (Curtiss, et al., J. Biol. Chem. 257: 15213-15221 (1991)) at a final concentration of 50 μg/ml; ubiquinone (Sigma Chemical Co., St. Louis, MO) was added as Coenzyme Q-10 at a final concentration of 0.5 mM; and dolichol (Sigma Chemical Co., St. Louis, MO) was added as a dispersion in phosphatidylcholine at a final concentration of 0.5 mM (Cutts, et al., J. Cell Physiol. 139: 550-555 (1989)).
O2 --formation by HL-60 cells was assessed by the SOD-sensitive reduction of cytochrome c. Cells were suspended at 1×10^7 /ml in Krebs-Ringer Hepes buffer with 5.5 mM glucose (KRHG) and 50-100μl of cells were added to a cuvette containing 100 μM cytochrome c (type III, Sigma Chemical Co., St. Louis, MO), ±300 μg/ml SOD (Sigma Chemical Co., St. Louis, MO) in 700-750 μl KRHG. Cytochalasin b (Sigma Chemical Co., St. Louis, MO) was added to a final concentration of 5 μg/ml, and the cells were incubated at 37° C. for five minutes while a stable baseline at a wavelength of 550 nm was obtained. O2 --formation was initiated by the addition of 1 μM N-formylmethionylleucylphenylalanine (FMLP; Sigma Chemical Co., St. Louis, MO) or 1μg/ml phorbol myristate acetate (PMA; Sigma Chemical Co., St. Louis, MO). Cytochrome c reduction at 550nm was continuously monitored and maximal rate and extent of the reaction calculated.

[3] = read-out: FMLP-stimulated O2- formation, Extent
[4] = read-out: FMLP-stimulated O2- formation, Rate

CC[C@H](C)C(=O)O[C@H]1CCC=C2C=C[C@H](C)[C@H](CC[C@@H]3C[C@@H](O)CC(=O)O3)[C@H]21 [compactin]
inhibition of NADPH oxidase activation, effective concentrations [1]: micromolar concentrations | inhibition at 10 µM ([1]; Homo sapiens, HL-60, 10 μM compactin, response to FMLP or PMA, read-out: inhibition of O2- formation): > 85% | IC50 ([1]; Homo sapiens, DMSO-differentiated HL-60, response to FMLP or PMA, read-out: half-maximal inhibition of O2- formation): 0.4 to 2 µM | ability of HL-60 cells to generate O2- ([1]; response to receptor stimuli and downstream activators): markedly inhibited | activity at 0.4 µM [2, 3]: 71 ± 10% | activity at 0.4 µM [2, 4]: 77 ± 10% | activity at 2 µM [2, 3]: 36 ± 11% | activity at 2 µM [2, 4]: 47 ± 11% | activity at 4 µM [2, 3]: 22 ± 1% | activity at 4 µM [2, 4]: 39 ± 4.1% | activity at 10 µM [2, 3]: 12 ± 2.1% | activity at 10 µM [2, 4]: 15 ± 2.6% | inhibition of O2- formation in response to FMLP ([2]; various concentrations): dose-dependent inhibition
